Assays:
[1] = biological target: T1, TDO (A172 human glioblastoma cells) (Homo sapiens, UniProt P48775); assay: A172 Kynurenine cell based assay; settings: 500 μM L-tryptophan, 48 hours, kynurenine by Erhlich's reagent
T1 construct: This assay utilised cancer cells which expressed either TDO or IDO; endogenous in cells; host or cells: A172 human glioblastoma cells
Method in brief: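 A172 glioblastoma cells (30,000/well) cultured at 37° C. in phenol red-free RPMI with 10% FCS, 2 mM L-glutamine and 500 μM L-tryptophan, with or without test compound. After 48 hours, kynurenine in the supernatant was read with Erhlich's reagent (5 min) as absorbance at 490 nm.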

Recombinant human TDO = Recombinant human TDO (Homo sapiens, UniProt P48775); assay: hTDO biochemical coupled assay; settings: 330 μM L-tryptophan, coupled with kynurenine formamidase
Chain of Recombinant human TDO (P48775 whole entry): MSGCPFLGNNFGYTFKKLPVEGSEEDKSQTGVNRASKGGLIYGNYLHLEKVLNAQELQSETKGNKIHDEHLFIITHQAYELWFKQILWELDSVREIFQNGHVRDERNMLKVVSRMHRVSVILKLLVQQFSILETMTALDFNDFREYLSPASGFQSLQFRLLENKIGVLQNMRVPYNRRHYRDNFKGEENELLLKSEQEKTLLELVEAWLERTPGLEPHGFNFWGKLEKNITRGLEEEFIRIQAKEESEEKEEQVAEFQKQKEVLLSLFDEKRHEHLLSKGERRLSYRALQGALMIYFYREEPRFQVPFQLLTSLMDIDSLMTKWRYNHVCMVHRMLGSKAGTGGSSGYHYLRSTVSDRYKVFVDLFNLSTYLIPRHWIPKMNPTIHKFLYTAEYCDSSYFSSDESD
Experimental: (§1) Exemplary compounds of the invention were prepared, and tested to determine their effect as TDO and/or IDO inhibitors. Two different assays were employed: 1. a cell-based assay for detecting the effect of test compounds on kynurenine production in two different cancer cell types. This assay utilised cancer cells which expressed either TDO or IDO and as such was used as a means of testing compound activity at these two enzymes in a cell-based context. 2. a TDO and IDO biochemical coupled assay which utilised recombinantly produced and purified TDO and IDO enzymes in combination with the enzyme formamidase. This coupled enzyme system allowed conversion of N-formylkynurenine produced by TDO or IDO activity to kynurenine which was then quantified by fluorescence following addition of Erhlich's Reagent The protocols for these are set out below.
Recombinant human IDO or TDO was incubated in 50 mM KPO4 (pH 7.0), 0.5 mM EGTA, 0.5 mM EDTA, 0.05% Triton™ X100, 20 mM ascorbate, 10 μM methylene blue, 500 U/ml catalase, 50 μg/ml KynB (kynurenine formamidase). TDO assays were carried out in the presence of 330 μM L-tryptophan, while IDO assays had the addition of 45 μM L-tryptophan. After incubation for 17 minutes at room temperature the reactions were stopped by the addition of Erhlich's reagent and incubated at room temperature for 5 minutes before the fluorescence was read (Ex475, Em530).

[2] = biological target: T2, IDO (SKOV3 human ovarian adenocarcinoma cells, IFN-γ induced) (Homo sapiens, UniProt P14902); assay: SKOV3 Kynurenine cell based assay; settings: IDO induced by 500 ng/ml IFN-γ, 500 μM L-tryptophan, 48 hours
T2 construct: IDO expression was induced in the SKOV3 cells by the addition of 500 ng/ml IFN-γ; endogenous in cells; host or cells: SKOV3 human ovarian adenocarcinoma cells, induced with IFN-γ
T2 sequence (P14902 whole entry): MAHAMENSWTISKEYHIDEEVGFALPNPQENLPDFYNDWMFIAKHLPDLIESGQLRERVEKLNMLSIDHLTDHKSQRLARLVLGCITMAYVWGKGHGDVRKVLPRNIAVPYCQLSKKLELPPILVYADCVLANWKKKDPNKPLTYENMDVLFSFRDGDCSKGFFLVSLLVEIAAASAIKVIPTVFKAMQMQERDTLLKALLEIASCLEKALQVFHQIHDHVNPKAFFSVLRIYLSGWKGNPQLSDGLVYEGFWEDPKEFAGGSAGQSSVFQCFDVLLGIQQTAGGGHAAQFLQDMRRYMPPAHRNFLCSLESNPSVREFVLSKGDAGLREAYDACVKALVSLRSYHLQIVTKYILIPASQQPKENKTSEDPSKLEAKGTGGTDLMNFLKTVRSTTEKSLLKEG
Method in brief: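 IFN-γ (500 ng/ml) induced IDO in SKOV3 cells, seeded at 40,000/well in phenol red-free RPMI with 10% FCS, 2 mM L-glutamine and 500 μM L-tryptophan. Cells were incubated with or without compound at 37° C for 48 h. Supernatant kynurenine was detected with Ehrlich's reagent.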

Recombinant human IDO = Recombinant human IDO (Homo sapiens, UniProt P14902); assay: hIDO biochemical coupled assay; settings: 45 μM L-tryptophan, coupled with kynurenine formamidase
Chain of Recombinant human IDO (P14902 whole entry): as above
Experimental: as §1
Recombinant human IDO or TDO was incubated in 50 mM KPO4 (pH 7.0), 0.5 mM EGTA, 0.5 mM EDTA, 0.05% Triton™ X100, 20 mM ascorbate, 10 μM methylene blue, 500 U/ml catalase, 50 μg/ml KynB (kynurenine formamidase).

T1 sequence (P48775 whole entry): as the sequence (P48775 whole entry) above

| A172 Kynurenine cell based assay pIC50 [1] | hTDO biochemical assay pIC50 (Recombinant human TDO) | SKOV3 Kynurenine cell based assay pIC50 [2] | hIDO biocehmical assay pIC50 (Recombinant human IDO) | SMILES |
| --- | --- | --- | --- | --- |
| ++ (++ = pIC50 5.00-5.99) | ++ (++ = pIC50 5.00-5.99) | – | – | CS(=O)(=O)N1CC=C(c2c[nH]c3ccccc23)CC1 [Compound 209] |
| – | + (+ = pIC50 4.00-4.99) | – | – | Cn1cc(C2=CCN(S(C)(=O)=O)CC2)c2ccccc21 [Compound 204] |
| ++ (++ = pIC50 5.00-5.99) | + (+ = pIC50 4.00-4.99) | – | – | CNCC1CN(c2c[nH]c3ccccc23)CCN1S(C)(=O)=O (stereo not shown) [Compound 319] |
| ++ (++ = pIC50 5.00-5.99) | + (+ = pIC50 4.00-4.99) | – | – | CNS(=O)(=O)N1CCN(c2c[nH]c3ccccc23)CC1 [Compound 295] |
| +− (+− = pIC50 <4.00) | – | + (+ = pIC50 4.00-4.99) | +− (+− = pIC50 <4.00) | CC(=O)Nc1ccc(S(=O)(=O)N2CCC(c3c[nH]c4ccccc34)CC2)cc1Cl [Compound 52] |
| + (+ = pIC50 4.00-4.99) | – | + (+ = pIC50 4.00-4.99) | +− (+− = pIC50 <4.00) | COc1cccc2[nH]cc(C3=CCN(C(C)=O)CC3)c12 [Compound 169] |
| ++ (++ = pIC50 5.00-5.99) | + (+ = pIC50 4.00-4.99) | – | – | NS(=O)(=O)N1CCN(c2c[nH]c3ccccc23)CC1 [Compound 311] |
| + (+ = pIC50 4.00-4.99) | – | + (+ = pIC50 4.00-4.99) | +− (+− = pIC50 <4.00) | CC(=O)N1CC=C(c2c[nH]c3cccnc23)CC1 [Compound 157] |
| ++ (++ = pIC50 5.00-5.99) | + (+ = pIC50 4.00-4.99) | – | – | O=S1(=O)CCC2CN(c3c[nH]c4ccccc34)CCN21 (stereo not shown) [Compound 304] |
| ++ (++ = pIC50 5.00-5.99) | + (+ = pIC50 4.00-4.99) | – | – | NS(=O)(=O)N1CCC(c2c[nH]c3ccccc23)CC1 [Compound 218] |
| ++ (++ = pIC50 5.00-5.99) | – | +− (+− = pIC50 <4.00) | +− (+− = pIC50 <4.00) | CC1CN(c2c[nH]c3ccccc23)CCN1S(C)(=O)=O (stereo not shown) [Compound 186] |
| ++ (++ = pIC50 5.00-5.99) | – | +− (+− = pIC50 <4.00) | +− (+− = pIC50 <4.00) | CS(=O)(=O)N1CC=C(c2c[nH]c3cnccc23)CC1 [Compound 171] |
| + (+ = pIC50 4.00-4.99) | – | +− (+− = pIC50 <4.00) | +− (+− = pIC50 <4.00) | CS(=O)(=O)N1CCN(c2c[nH]c3ccccc23)CC1 [Compound 108] |
| + (+ = pIC50 4.00-4.99) | – | +− (+− = pIC50 <4.00) | +− (+− = pIC50 <4.00) | CN1CCN(c2c[nH]c3ccccc23)CC1=O [Compound 189] |
| – | + (+ = pIC50 4.00-4.99) | – | – | CC(=O)N1CC=C(c2c[nH]c3cnccc23)CC1 [Compound 198] |
| + (+ = pIC50 4.00-4.99) | + (+ = pIC50 4.00-4.99) | – | – | CC(=O)N1CC=C(c2c[nH]c3cc(C)ccc23)CC1 [Compound 205] |
| ++ (++ = pIC50 5.00-5.99) | ++ (++ = pIC50 5.00-5.99) | – | – | CC(=O)N1CC=C(c2c[nH]c3ccccc23)CC1 [Compound 210] |

More lines, now with the values behind:

| SMILES | A172 Kynurenine cell based assay pIC50 [1] | hTDO biochemical assay pIC50 (Recombinant human TDO) | SKOV3 Kynurenine cell based assay pIC50 [2] | hIDO biocehmical assay pIC50 (Recombinant human IDO) |
| --- | --- | --- | --- | --- |
| COc1cccc2[nH]cc(C3=CCN(S(C)(=O)=O)CC3)c12 [Compound 197] | – | + (+ = pIC50 4.00-4.99) | – | – |
| COc1ccc2[nH]cc(C3CCN(C(C)=O)CC3)c2c1 [Compound 199] | – | + (+ = pIC50 4.00-4.99) | – | – |
| O=C(C(F)F)N1CCC(c2c[nH]c3cc(F)ccc23)CC1 [Compound 260] | ++ (++ = pIC50 5.00-5.99) | + (+ = pIC50 4.00-4.99) | – | – |
| CC(=O)N1CCC(c2c[nH]c3ccc(F)cc23)CC1 [Compound 158] | + (+ = pIC50 4.00-4.99) | – | +− (+− = pIC50 <4.00) | +− (+− = pIC50 <4.00) |
| Cn1cc(S(=O)(=O)N2CCC(c3c[nH]c4cc(F)ccc34)CC2)cn1 [Compound 286] | ++ (++ = pIC50 5.00-5.99) | + (+ = pIC50 4.00-4.99) | – | – |
| CS(=O)(=O)N1CC=C(c2c[nH]c3cc(Cl)c(F)cc23)CC1 [Compound 227] | ++ (++ = pIC50 5.00-5.99) | + (+ = pIC50 4.00-4.99) | – | – |
| CC(=O)N1CC=C(c2c[nH]c3cc(OCc4ccccc4)ccc23)CC1 [Compound 156] | + (+ = pIC50 4.00-4.99) | – | + (+ = pIC50 4.00-4.99) | +− (+− = pIC50 <4.00) |
| Cc1cccc2c(C3CCN(C(=O)c4cnn(-c5ccccc5)c4C(F)(F)F)CC3)c[nH]c12 [Compound 41] | + (+ = pIC50 4.00-4.99) | – | + (+ = pIC50 4.00-4.99) | +− (+− = pIC50 <4.00) |
| NS(=O)(=O)N1CCC(c2c[nH]c3cc(F)ccc23)CC1 [Compound 249] | ++ (++ = pIC50 5.00-5.99) | + (+ = pIC50 4.00-4.99) | – | – |
| CS(=O)(=O)N1CCC(c2c[nH]c3ccc(F)cc23)CC1 [Compound 159] | ++ (++ = pIC50 5.00-5.99) | – | +− (+− = pIC50 <4.00) | +− (+− = pIC50 <4.00) |
| COc1ccc2[nH]cc(C3CCN(S(=O)(=O)c4ccc(C(F)(F)F)cc4Cl)CC3)c2c1 [Compound 43] | + (+ = pIC50 4.00-4.99) | – | + (+ = pIC50 4.00-4.99) | +− (+− = pIC50 <4.00) |
| CC(=O)N1CC=C(c2c[nH]c3ccc(OCc4ccccc4)cc23)CC1 [Compound 155] | + (+ = pIC50 4.00-4.99) | – | + (+ = pIC50 4.00-4.99) | +− (+− = pIC50 <4.00) |
| Cc1cccc2c(C3CCN(S(=O)(=O)c4cccc(C(F)(F)F)c4)CC3)c[nH]c12 [Compound 46] | + (+ = pIC50 4.00-4.99) | – | +− (+− = pIC50 <4.00) | +− (+− = pIC50 <4.00) |
| Cc1cccc2c(C3CCN(S(=O)(=O)c4cc(F)c(F)cc4Cl)CC3)c[nH]c12 [Compound 38] | + (+ = pIC50 4.00-4.99) | – | +− (+− = pIC50 <4.00) | +− (+− = pIC50 <4.00) |
| COc1ccc2[nH]cc(C3CCN(S(=O)(=O)c4cccc(OC(F)(F)F)c4)CC3)c2c1 [Compound 53] | + (+ = pIC50 4.00-4.99) | – | + (+ = pIC50 4.00-4.99) | +− (+− = pIC50 <4.00) |

From patent US9931347B2, “Pharmaceutical compound” (IOmet Pharma Ltd., priority 2013, dated 2018)
